Assays:
[1] = tested on: MCF-7 breast cancer cells; experiment: MTT cell viability assay, MCF-7; format: cell-based, human
Protocol: All of the synthesized compounds (7a–f) were studied to test their anticancer activity toward the estrogen receptor-positive (ER+) MCF-7 and the triple-negative MDA-MB-231 breast cancer cells (ER-, PR- and HER-2/Neu not overexpressed) and A2058 melanoma cells. Cells were incubated for 72 h with different concentrations of the compounds, and then the viability was checked by the MTT assay. […] Moreover, we checked the cytotoxicity of all of the synthesized compounds against the human MCF-10A non-malignant breast epithelial cells and mouse BALB/3T3 embryonic fibroblasts, in order to evaluate their selectivity on cancer cells.
The used cell lines (breast cancer cell lines MCF-7 and MDA-MB-231, melanoma cell line A2058 and human mammary epithelial cell line MCF-10A) were obtained from American Type Culture Collection (ATCC, Manassas, VA, USA) and cultured as already reported. The mouse BALB/3T3 embryonic fibroblasts were also purchased from American Type Culture Collection (ATCC, Manassas, VA, USA) and cultured in DMEM high glucose supplemented with 10% bovine calf serum (BCS) and 100 U mL^−1 penicillin/streptomycin.
MTT assay (Sigma Aldrich (St. Louis, MO, USA)) was performed for evaluating the in vitro anticancer activities of the compounds, as previously indicated. Different concentrations (0.1, 1, 10, 25, 50, and 100 μM) of the compounds were employed, with a 72 h endpoint. IC50 values were obtained from the percent (%) of control using GraphPad Prism 9 (GraphPad Software, La Jolla, CA, USA).

hTopo I = target: T1, hTopo I (Homo sapiens, UniProt P11387); experiment: hTopo I relaxation assay; format: biochemical; set-up: key to Topoisomerase Inhibition hTopo I: (+) inhibition; (−) no inhibition; (+/−) partial inhibition; conditions: 10 µM
T1 construct: purchased TopoGEN, Port Orange, FL, USA
T1 sequence (P11387 1-765): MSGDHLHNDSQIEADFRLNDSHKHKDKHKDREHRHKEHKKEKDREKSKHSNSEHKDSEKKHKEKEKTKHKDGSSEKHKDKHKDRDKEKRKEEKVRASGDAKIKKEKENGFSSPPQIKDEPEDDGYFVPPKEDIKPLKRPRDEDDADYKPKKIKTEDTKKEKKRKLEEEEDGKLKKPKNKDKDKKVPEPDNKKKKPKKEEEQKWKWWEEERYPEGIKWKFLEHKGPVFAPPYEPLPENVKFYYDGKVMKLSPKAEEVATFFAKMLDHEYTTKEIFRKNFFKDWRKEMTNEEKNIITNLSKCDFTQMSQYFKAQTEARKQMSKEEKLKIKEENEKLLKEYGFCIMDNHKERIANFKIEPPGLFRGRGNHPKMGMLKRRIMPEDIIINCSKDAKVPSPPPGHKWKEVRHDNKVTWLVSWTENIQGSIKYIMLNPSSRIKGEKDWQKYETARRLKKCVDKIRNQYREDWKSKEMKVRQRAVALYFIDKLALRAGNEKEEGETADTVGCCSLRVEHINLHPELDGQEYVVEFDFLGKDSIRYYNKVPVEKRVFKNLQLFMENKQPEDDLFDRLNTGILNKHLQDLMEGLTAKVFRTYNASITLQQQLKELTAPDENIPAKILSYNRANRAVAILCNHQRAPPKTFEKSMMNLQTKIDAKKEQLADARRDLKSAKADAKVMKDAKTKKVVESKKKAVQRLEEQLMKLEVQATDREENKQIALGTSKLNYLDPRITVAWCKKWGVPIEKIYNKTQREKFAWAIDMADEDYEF
Excerpt: Thiazoles and their derivatives are extensively recognized as chemical nuclei of great interest for producing molecules with multiple biological properties. In particular, several compounds bearing these heterocycles were studied for their capability to interfere with DNA topoisomerases (Topos), ubiquitous enzymes essential in several key cellular processes. In recent years, these enzymes have become popular targets in cancer therapy; indeed, the topoisomerase inhibitors can induce damage to genome integrity. Consequently, the inhibition of topoisomerases leads to cell death by apoptosis and, thus, is fatal. Thus, we carried out two specific tests in vitro for both of the Topos, namely the hTopo I relaxation and the hTopo II decatenation assays. For the hTopo I relaxation assay, we exposed the enzyme to the most interesting compounds, 7b–7e, at the final concentration of 10 µM for 1 h at 37 °C, using as substrate the supercoiled pHOT1 (see Section 4 Materials and Methods for more details). […] Contrarily, in the CTRL lane, where the hTopo I was exposed to only vehicle (DMSO), several bands due to pHOT1 DNA cleavage were present (Figure 3, lane C). […] In Figure 3, panel B, the hTopo I inhibition results using ellipticine, as reference molecule are shown. […] An electrophoretic mobility shift of the pHOT1 DNA was also noticeable, due to the intercalating properties of ellipticine.
(§1) hTopo I relaxation assays were performed by incubating the substrate (supercoiled pHOT1) with the recombinant hTopo I (TopoGEN, Port Orange, FL, USA) and compounds, as indicated in the supplier protocol (TopoGEN, Port Orange, FL, USA), with some revisions. hTopo II decatenation assays were conducted by incubating the kinetoplast DNA substrate (kDNA) with the hTopo II (TopoGEN, Port Orange, FL) and studied compounds, as indicated in the supplier procedures (TopoGEN, Port Orange, FL, USA), with some changes as in [80].
Figure 3 hTopo I relaxation assay. Plasmid pHOT1, used as substrate, was incubated with hTopo I with or without the studied compounds 7b–7e (10 µM concentration), panel (A), and with or without ellipticine (10 and 50 µM concentration), panel (B). Lane A, relaxed DNA marker; lane B, pHOT1 supercoiled DNA, lane C, CTRL (DMSO), lane D–G, compounds 7b–7e 10 µM, respectively. Lane 1, pHOT1 supercoiled DNA; lane 2, CTRL (DMSO), lanes 3–4, ellipticine 10 and 50 µM, respectively.

hTopo II = target: T2, hTopo II (Homo sapiens, UniProt P11388); experiment: hTopo II decatenation assay; format: biochemical; set-up: key to Topoisomerase Inhibition hTopo II: (+) inhibition; (−) no inhibition; (+/−) partial inhibition
T2 construct: purchased TopoGEN, Port Orange, FL
T2 sequence (P11388 whole entry): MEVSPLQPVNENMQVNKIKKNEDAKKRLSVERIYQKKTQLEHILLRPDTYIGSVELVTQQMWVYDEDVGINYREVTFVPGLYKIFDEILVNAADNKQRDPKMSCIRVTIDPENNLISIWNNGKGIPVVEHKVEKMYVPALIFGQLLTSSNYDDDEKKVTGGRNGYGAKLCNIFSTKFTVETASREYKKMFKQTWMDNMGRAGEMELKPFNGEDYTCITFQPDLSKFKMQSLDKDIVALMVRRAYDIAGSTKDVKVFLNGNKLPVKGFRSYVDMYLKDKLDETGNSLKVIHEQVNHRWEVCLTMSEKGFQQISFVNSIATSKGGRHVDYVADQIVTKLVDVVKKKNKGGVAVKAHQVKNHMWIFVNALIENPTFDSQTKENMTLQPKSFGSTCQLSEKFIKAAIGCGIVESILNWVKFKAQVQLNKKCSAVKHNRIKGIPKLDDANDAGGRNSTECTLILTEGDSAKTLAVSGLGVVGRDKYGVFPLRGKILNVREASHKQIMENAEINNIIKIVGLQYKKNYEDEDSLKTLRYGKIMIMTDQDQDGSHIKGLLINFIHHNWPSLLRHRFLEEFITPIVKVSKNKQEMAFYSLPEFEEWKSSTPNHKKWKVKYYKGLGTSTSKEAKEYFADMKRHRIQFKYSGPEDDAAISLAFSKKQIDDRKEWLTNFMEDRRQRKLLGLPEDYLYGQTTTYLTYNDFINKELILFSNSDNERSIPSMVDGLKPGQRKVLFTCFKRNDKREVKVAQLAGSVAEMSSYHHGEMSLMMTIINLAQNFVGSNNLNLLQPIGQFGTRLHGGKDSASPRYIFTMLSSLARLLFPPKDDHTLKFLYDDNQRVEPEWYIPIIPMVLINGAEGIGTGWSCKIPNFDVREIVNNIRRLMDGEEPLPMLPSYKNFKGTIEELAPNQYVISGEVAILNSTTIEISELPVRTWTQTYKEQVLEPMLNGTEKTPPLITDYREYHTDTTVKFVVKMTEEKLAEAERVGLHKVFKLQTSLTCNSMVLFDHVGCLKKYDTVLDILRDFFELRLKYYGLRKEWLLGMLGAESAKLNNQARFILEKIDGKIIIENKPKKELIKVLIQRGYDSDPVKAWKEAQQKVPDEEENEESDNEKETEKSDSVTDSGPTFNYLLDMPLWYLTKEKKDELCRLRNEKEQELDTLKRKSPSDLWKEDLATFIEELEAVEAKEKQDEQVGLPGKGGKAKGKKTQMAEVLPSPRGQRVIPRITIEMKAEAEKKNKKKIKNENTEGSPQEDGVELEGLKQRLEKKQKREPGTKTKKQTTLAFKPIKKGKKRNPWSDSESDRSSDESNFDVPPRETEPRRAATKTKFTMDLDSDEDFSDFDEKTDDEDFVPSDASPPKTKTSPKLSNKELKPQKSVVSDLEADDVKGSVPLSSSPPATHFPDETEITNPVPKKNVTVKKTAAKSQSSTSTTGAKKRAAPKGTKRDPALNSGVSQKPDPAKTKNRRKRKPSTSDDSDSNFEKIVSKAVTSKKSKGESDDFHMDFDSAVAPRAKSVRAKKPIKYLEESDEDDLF
Protocol: The linear kDNA (Figure 4a,b, lanes A), decatenated kDNA (Figure 4a,b, lanes B) and the catenated circles of kDNA (Figure 4a,b, lanes C) were used as markers. A parallel experiment was performed using ellipticine as reference molecule.
as §1
Figure 4 hTopo II decatenation assay. […] The same experiment was performed using ellipticine (c). Lane 1, decatenated kDNA marker; lane 2, linear kDNA marker; lane 3, CTRL (DMSO), lanes 4–5, ellipticine 10 and 50 µM, respectively.

Compound: COc1cc(/C=C2\SC(=O)N(CC(=O)Nc3nc(-c4ccc(Br)cc4)cs3)C2=O)cc(OC)c1OC [compound 7e, (Z)-2-(5-(3,4,5-Trimethoxybenzylidene)thiazolidin-2,4-dion-3-yl)-N-(4-(4-bromophenyl)thiazol-2-yl)acetamide]
- IC50 ([1]; Homo sapiens, MCF7, MTT, 72 h): 3.1 ± 0.6 µM
- fold more active against MCF-7 than against mouse BALB/3T3 embryonic fibroblasts ([1]; MCF-7 vs BALB/3T3 IC50): about 11 fold
- Topoisomerase Inhibition hTopo I (hTopo I): −
- hTopo I activity inhibition (in words) (hTopo I; 1 h, 37 °C, supercoiled pHOT1): able to inhibit hTopo I activity
- Topoisomerase Inhibition hTopo II (hTopo II; 10 µM): −
- Topoisomerase Inhibition hTopo II (hTopo II; 50 µM): +

Reference: paper PMC10384675, “Novel Thiazolidine-2,4-dione-trimethoxybenzene-thiazole Hybrids as Human Topoisomerases Inhibitors” (Pharmaceuticals, 2023)
